Measurements: the supplement of paper PMC10307832

The cell lines below were run with Cc1nc(NC(=O)N2CCC[C@H]2C(N)=O)sc1-c1ccnc(C(C)(C)C(F)(F)F)c1 [Alpelisib] + C[C@@H](Oc1cc(-c2cnn(C3CCNCC3)c2)cnc1N)c1c(Cl)ccc(F)c1Cl [Crizotinib] (partner 1 µM) (assay: relative viability (nuclei count vs DMSO), 5 days (fraction); higher = more cells survive). Conditions: first compound 0.04 µM.
Outline: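 Lung cancer cell lines were pin-tool dosed in 1536-well plates on the day after seeding, with either a lone drug or a fixed anchor-drug dose plus five library-drug doses (not always all listed) in √10 steps. Nuclei were counted on 4× images after 5 days. Relative viability is the ratio of treated-well to vehicle-well nuclei counts, with each value a median of duplicate plates.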

Cell Line	relative viability
NCI-H838	0.774
A-427	0.775
NCI-H2009	1.04
EKVX	0.956
NCI-H2087	0.781
NCI-H1734	0.633
LCLC-103H	0.928
LU99A	0.544
NCI-H460	0.855
NCI-H2170	1.08
SK-LU-1	0.987
COR-L23	0.622
HCC-15	0.814
NCI-H1944	1.01
NCI-H1563	0.877
EMC-BAC-2	0.752

Cell Line	relative viability
NCI-H1792	1.01
LC-2-ad	0.501
NCI-H2085	0.808
NCI-H647	1.03
HARA	1.04
NCI-H3122	0.27
NCI-H358	0.785
CAL-12T	0.66
COR-L 105	0.697
LCLC-97TM1	0.343
NCI-H520	0.823
NCI-H2228	0.514
NCI-H23	0.565
HCC-827	0.927
NCI-H2347	0.674
LXF-289	0.798

Same assay, conditions: first compound 0.1265 µM

Cell Line	relative viability
NCI-H838	0.768
A-427	0.835
NCI-H2009	1.02
EKVX	0.918
NCI-H2087	0.892
NCI-H1734	0.605
LCLC-103H	0.976
LU99A	0.471
NCI-H460	1.02
NCI-H2170	1.17
SK-LU-1	0.792
COR-L23	0.613
HCC-15	0.798
NCI-H1944	1.24
NCI-H1563	0.89
EMC-BAC-2	0.778

Cell Line	relative viability
NCI-H1792	0.884
LC-2-ad	0.316
NCI-H2085	0.769
NCI-H647	1.08
HARA	1.03
NCI-H3122	0.308
NCI-H358	0.534
CAL-12T	0.53
COR-L 105	1
LCLC-97TM1	0.295
NCI-H520	0.75
NCI-H2228	0.402
NCI-H23	0.497
HCC-827	0.884
NCI-H2347	0.897
LXF-289	0.792

Same assay, conditions: first compound 0.4 µM

Cell Line	relative viability
NCI-H838	0.932
A-427	1.11
NCI-H2009	1.11
EKVX	1.06
NCI-H2087	0.958
NCI-H1734	0.715
LCLC-103H	1.05
LU99A	0.509
NCI-H460	0.926
NCI-H2170	1.23
SK-LU-1	1.01
COR-L23	0.698
HCC-15	0.901
NCI-H1944	1.14
NCI-H1563	0.753
EMC-BAC-2	0.753

Cell Line	relative viability
NCI-H1792	0.983
LC-2-ad	0.532
NCI-H2085	0.758
NCI-H647	1.11
HARA	1.15
NCI-H3122	0.227
NCI-H358	0.725
CAL-12T	0.711
COR-L 105	0.879
LCLC-97TM1	0.427
NCI-H520	0.739
NCI-H2228	0.403
NCI-H23	0.425
HCC-827	0.949
NCI-H2347	0.859
LXF-289	0.875

Same assay, conditions: first compound 1.265 µM

Cell Line	relative viability
NCI-H838	0.73
A-427	0.773
NCI-H2009	0.953
EKVX	0.749
NCI-H2087	0.732
NCI-H1734	0.506
LCLC-103H	0.899
LU99A	0.385
NCI-H460	0.285
NCI-H2170	0.729
SK-LU-1	0.773
COR-L23	0.478
HCC-15	0.668
NCI-H1944	0.725
NCI-H1563	0.775
EMC-BAC-2	0.608

Cell Line	relative viability
NCI-H1792	0.886
LC-2-ad	0.351
NCI-H2085	0.814
NCI-H647	0.933
HARA	0.845
NCI-H3122	0.196
NCI-H358	0.473
CAL-12T	0.556
COR-L 105	0.691
LCLC-97TM1	0.208
NCI-H520	0.463
NCI-H2228	0.303
NCI-H23	0.428
HCC-827	0.91
NCI-H2347	0.603
LXF-289	0.84

Same assay, conditions: first compound 4 µM

Cell Line	relative viability
NCI-H838	0.772
A-427	0.653
NCI-H2009	0.831
EKVX	0.619
NCI-H2087	0.658
NCI-H1734	0.382
LCLC-103H	0.787
LU99A	0.313
NCI-H460	0.296
NCI-H2170	0.71
SK-LU-1	0.763
COR-L23	0.459
HCC-15	0.651
NCI-H1944	0.523
NCI-H1563	0.707
EMC-BAC-2	0.496

Cell Line	relative viability
NCI-H1792	0.72
LC-2-ad	0.386
NCI-H2085	0.796
NCI-H647	0.913
HARA	0.622
NCI-H3122	0.2
NCI-H358	0.354
CAL-12T	0.596
COR-L 105	0.695
LCLC-97TM1	0.157
NCI-H520	0.515
NCI-H2228	0.304
NCI-H23	0.432
HCC-827	0.88
NCI-H2347	0.61
